According to patent publication US8349835B2, “Aromatic ring fused triazine derivatives and uses thereof” (Shenyang Pharmaceutical University, priority 2008, dated 2013):

Assays:
[1] = system: chorioallantoic membrane vessels; test: Activity test by chick chorioallantoic membrane method; assay type: in vivo; conditions: 5 uL medicine on cellulose membrane, chick embryo, 2 days
Method: After the shell membrane became wet, tore it open with ophthalmological tweezers so to expose the chorioallantoic membrane. • 6) Added 5 uL of selected medicine to a 0.5×0.5 cm cellulose membrane sterilized by high pressure, then set the membrane on the part of the chorioallantoic membrane with fewer vessels • 7) Closed the window, and put the embryos back into the hatch box to hatch for 2 days. • 8) Opened the transparent tape, and then opened the mixed cellulose membrane lightly with a tweezers. Measured the avascular area and took photographs.

Rat aortic ring = test: Rat Aortic Ring Assay; assay type: cell-based; conditions: observed on the sixth day
Description: Rat Aortic Ring Assay • 1) 6 week old SD […] (Sprague Dawley) were selected for the experiments. Cleaned abdominal skin with 75% ethanol to disinfect, and then anesthetized the mice with ether, • 2) Carefully removed the abdominal aortas and transferred the aortas to normal saline. Excessive vascular tissues were carefully removed with scissors. • 3) The aortas were rinsed with normal saline until no blood stain remained. • 4) Sectioned the aortas into one millimeter depth arterial slices with ophthalmological scissors. • 5) Add 50 μL pre-thawed Matrigel to each well of the pre-cooled 96 well cell culture plates, and embedded the ring-shaped mouse aortas in collagen gel. • 6) Incubated for 60 minutes at 37° C. to solidificate the gel. • 7) Added DMEM culture solution containing 10% FBS, along with different concentrations of the selected compounds into the wells and cultured in the incubator. Every compound was repeated in no less than 3 wells. • 8) Replaced with the fresh medium and changed the medicine once on the third day. • 9) Took out the pates on the sixth day, and observed the vascular growth with Microscope (OLYMPUS, DP70, Japan) and took photographs(×100). Randomly chose 3 arterial rings to photograph and calculated the area covered by micro-vascular with Image Pro Plus software. The inhibition rate is calculated as:
[formula] • Evaluation criteria: ⋆inhibition rate[…]; ⋆⋆inhibition rate 60-90%; ⋆⋆⋆inhibition rate>90%.

VEGFR-2 = VEGFR-2 (Homo sapiens, UniProt P35968); test: VEGFR-2 inhibition rate test (kinase assay kit, colorimetric ELISA); conditions: concentration not given
Sequence of VEGFR-2 (P35968 20-1356): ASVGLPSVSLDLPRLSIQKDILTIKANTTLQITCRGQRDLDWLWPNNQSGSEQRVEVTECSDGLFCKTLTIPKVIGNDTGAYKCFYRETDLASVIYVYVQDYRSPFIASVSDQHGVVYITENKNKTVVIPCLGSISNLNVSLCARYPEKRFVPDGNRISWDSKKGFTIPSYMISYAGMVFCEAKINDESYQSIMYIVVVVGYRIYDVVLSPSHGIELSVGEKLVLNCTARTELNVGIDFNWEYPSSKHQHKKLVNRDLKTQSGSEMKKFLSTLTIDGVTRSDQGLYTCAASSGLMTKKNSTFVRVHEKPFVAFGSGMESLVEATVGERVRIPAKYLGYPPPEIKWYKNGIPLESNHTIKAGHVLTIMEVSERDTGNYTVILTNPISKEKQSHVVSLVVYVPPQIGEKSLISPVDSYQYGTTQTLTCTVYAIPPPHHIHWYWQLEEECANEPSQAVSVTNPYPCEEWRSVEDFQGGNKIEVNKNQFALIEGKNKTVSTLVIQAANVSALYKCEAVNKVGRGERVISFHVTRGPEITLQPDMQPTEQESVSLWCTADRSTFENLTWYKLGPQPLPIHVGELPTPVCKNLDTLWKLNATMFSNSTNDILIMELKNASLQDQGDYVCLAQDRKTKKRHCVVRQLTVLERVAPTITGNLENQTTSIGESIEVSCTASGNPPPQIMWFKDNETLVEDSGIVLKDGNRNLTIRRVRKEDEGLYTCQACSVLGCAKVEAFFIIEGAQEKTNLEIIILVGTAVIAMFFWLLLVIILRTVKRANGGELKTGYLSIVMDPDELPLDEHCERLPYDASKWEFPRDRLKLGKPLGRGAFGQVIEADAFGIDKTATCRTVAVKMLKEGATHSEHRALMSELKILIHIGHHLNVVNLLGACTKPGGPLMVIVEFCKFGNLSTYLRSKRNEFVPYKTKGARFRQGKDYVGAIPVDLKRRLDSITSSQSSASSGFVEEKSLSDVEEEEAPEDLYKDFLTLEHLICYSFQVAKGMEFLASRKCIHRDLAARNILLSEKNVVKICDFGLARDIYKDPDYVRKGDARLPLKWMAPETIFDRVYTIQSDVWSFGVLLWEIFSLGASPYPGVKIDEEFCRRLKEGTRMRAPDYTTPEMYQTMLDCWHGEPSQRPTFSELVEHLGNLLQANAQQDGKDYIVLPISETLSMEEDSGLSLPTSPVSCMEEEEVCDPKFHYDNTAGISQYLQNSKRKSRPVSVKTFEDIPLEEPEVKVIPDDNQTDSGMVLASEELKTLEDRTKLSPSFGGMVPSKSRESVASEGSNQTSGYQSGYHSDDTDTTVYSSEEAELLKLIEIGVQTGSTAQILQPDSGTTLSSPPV

| Compound | The inhibitory effect on the growth of chorioallantoic membrane vessels [1] | Rat Aortic Ring Assay (10 ug/ml), result in words (Rat aortic ring) | Kinase inhibition rate (VEGFR-2) (VEGFR-2) |
| --- | --- | --- | --- |
| Fc1ccccc1Nc1nnnc2ccccc12 [Example 3, 4-(2-fluoroanilino)-benzo[d][1,2,3]triazine] | Significant inhibition in two of three samples, | No significant inhibition | 19.78 |
| FC(F)(F)Oc1ccc(Nc2nnnc3ccccc23)cc1 [Example 6, 4-(4-trifluoromethoxyanilino)-benzo[d][1,2,3]triazine] | One of the two samples exhibits significant fracture, | No significant inhibition | −33.42 |
| FC(F)(F)Oc1cccc(Nc2nnnc3ccccc23)c1 [Example 7, 4-(3-trifluoromethoxyanilino)-benzo[d][1,2,3]triazine] | Two samples exhibit significant inhibition ring | No significant inhibition | −17.64 |
| CCCCOc1cc2nnnc(Nc3cccc(OC(F)(F)F)c3)c2cc1OC [Example 19, 6-methoxy-7-n-butoxy-4-(3-trifluoromethoxyanilino)-benzo[d][1,2,3]triazine] | Vessels are broken in one of two samples, | No significant inhibition compared with the blank control. | −56.68 |
| CCCCOc1cc2nnnc(Nc3cccc(Cl)c3)c2cc1OC [Example 21, 6-methoxy-7-n-butoxy-4-(3-chloroanilino)-benzo[d][1,2,3]triazine] | The vessels covered by paper become thinner, and another embryo is dead. | No significant inhibition | 2.40 |
| CCOc1cc2nnnc(Nc3ccc(F)c(Cl)c3)c2cc1OC [Example 39, 6-methoxy-7-ethoxy-4-(3-chloro-4-fluoroanilino)-benzo[d][1,2,3]triazine] | One embryo is dead, and the other exhibits no significant inhibition | No significant inhibition | 46.67 |
| CCCCCOc1cc2nnnc(Nc3cccc(C(F)(F)F)c3)c2cc1OC [Example 50, 6-methoxy-7-pentyloxy-4-(3-trifluoromethylanilino)-benzo[d][1,2,3]triazine] | One of the two samples exhibits inhibition ring. | No significant inhibition compared with the blank control | −9.35 |
| CCCCCOc1cc2nnnc(Nc3ccc(C(F)(F)F)cc3)c2cc1OC [Example 51, 6-methoxy-7-pentyloxy-4-(4-trifluoromethylanilino)-benzo[d][1,2,3]triazine] | The samples exhibit significant inhibition ring. | No significant inhibition | −18.71 |
| COc1cc2c(Nc3ccccc3)nnnc2cc1OCCCCl [Example 61, 6-methoxy-7-chloropropoxy-4-anilino-benzo[d][1,2,3]triazine] | One sample exhibits inhibition ring at the zone covered by paper. | No significant inhibition | 3.58 |
| COc1cc2c(Nc3ccc(Br)c(F)c3)nnnc2cc1OCCCCl [Example 62, 6-methoxy-7-chloropropoxy-4-(3-fluoro-4-bromoanilino)-benzo[1,2,3]triazine] | The embryo is dead. | No significant inhibition | 18.10 |
